# Source: patent US11096917B2, “Composition for preventing or treating muscle diseases, comprising suberic acid or pharmaceutically acceptable salt thereof as active ingredient” (INDUSTRY-ACADEMIC COOPERATION FOUNDATION, YONSEI UNIVERSITY, priority 2017, dated 2021)
# Assays:
# MuRF1 = assay: RT-PCR of MuRF1 gene expression in dexamethasone-treated myotubes; assay type: cell-based, mouse; settings: 100 μM suberic acid + 50 μM dexamethasone, 2 days, vs dexamethasone alone; FIG. 2B
# Method: (§1) A mouse myoblast cell line (C2C12 cells) was purchased from the American Type Culture Collection (ATCC, Manassas, Va., USA), and the purchased cells were cultured at 37° C. in a 5% CO2 incubator using a 10% fetal bovine serum medium (Gibco-BRL). When the cultured cells reached 80% confluence, the cells were differentiated into myotubes using a 2% horse serum medium (Gibco-BRL).
# (§2) From the fourth day of differentiation, the cells were treated with 50 μM dexamethasone (dexa; Sigma) and 100 μM suberic acid (CAS Number 505-48-6, Sigma) for 2 days.
# (§3) The cells were treated with 50 μM dexamethasone (dexa; Sigma) in the same manner as in Example 1.
# (§4) 1×10^7 mouse myoblast cells were added to 334 μL of a TRIzol solution, and pulverized. Thereafter, the resulting cell solution was centrifuged at 4° C. and 12,000× g for 10 minutes. The supernatant was transferred to a new tube, and 67 μL of chloroform was added thereto, and vortexed. The supernatant was again transferred to a new tube, and isopropanol was added so that a ratio of the supernatant and isopropanol was 1:1. […] A concentration of the extracted RNA sample was measured at wavelengths of 260 nm and 280 nm using a UV/VIS spectrophotometer (Beckman coulter, DU730), and the integrity of the RNA sample was determined by means of agarose gel electrophoresis. […]
# C57BL/6N mice [1] = assay: Grip strength test in high-fat diet-induced muscle loss mice; assay type: in vivo, mouse; settings: 0.2% suberic acid in high fat diet, 10 weeks, force (N) per weight (kg), vs high-fat diet mice; FIG. 3 (B)
# From the text: (§5) Twenty-four 5-week-old male C57BL/6N mice (Mating, Korea) were adapted to laboratory circumstances for a week while feeding a commercially available normal diet (rodent chow), and then assigned into three groups (a Chow group, a HFD group, and a suberic acid-treated group; n=8 mice per group) according to a randomized block design, and bred for 10 weeks. An obesity-inducing diet used in this experiment was a high fat diet (HFD: 40% fat calories, 17 g of lard+3% corn oil/100 g of diet), and a suberic acid-supplemented high fat diet (Suberic Acid) had the same compositions as the HFD, provided that the suberic acid-supplemented high fat diet included 0.2% suberic acid (Table 2). A normal diet group (Chow) took a commercially available rodent chow. The suberic acid was purchased from Sigma-Aldrich Corp.
# To measure grip strength of the mice, at 10 weeks of breeding, the grip strength of the mice was measured using four limbs. A force (N) generated by a mouse gripping a wire grid was measured a total of five times using a grip strength meter (Daejong Instrument Industry Co., Ltd., Korea) equipped with a wire grid (20×10 cm), and an at least one-minute break between every measurement was provided. The experimental results were calculated by dividing the measured force (N) by the weight (kg) of the mouse. […]
# p-4E-BP1 = assay: Western blotting of p-4E-BP1 in dexamethasone-treated myotubes; assay type: cell-based, mouse; settings: 100 μM suberic acid + 50 μM dexamethasone, 2 days, vs dexamethasone alone; FIG. 2A
# Method: as §1, §2, §3
# (§6) To perform Western blotting in the cells, 500 μL of a lysis buffer, which included 100 mM Tris-HCl (pH 7.4), 5 mM EDTA, 50 mM sodium pyrophosphate, 50 mM NaF, 100 mM orthovanadate, 1% Triton X-100, 1 mM phenylmethanesulfonyl fluoride, 2 μg/mL aprotinin, 1 μg/mL pepstatin A, and 1 μg/mL leupeptin, was added to each well from which a medium was removed, and the cell suspension was harvested, and then centrifuged at 4° C. and 1,300×g for 20 minutes. Thereafter, the middle layer was taken, and proteins were quantified according to the Bradford method (Bio-Rad). […] The bands visualized on the X-ray film were scanned, and then quantified using Quantity One analysis software (Bio-Rad).
# C57BL/6N mice [2] = assay: H&E staining of muscle tissue, fiber diameter, in high-fat diet mice; assay type: in vivo, mouse; settings: 0.2% suberic acid in high fat diet, 10 weeks, vs high-fat diet mice
# From the text: as §5
# A muscle tissue was extracted from a mouse, immobilized with 10% formalin, stained with a Hematoxylin and Eosin (H&E) stain, and then submitted to the Korea CFC (Gyeonggi-do, Korea). […]
# The statistical analysis of all data was carried out using a statistical package for the social sciences (SPSS version 21.0, IBM, Armonk, N.Y., USA) PC package. In this case, the analyzed numerical values are expressed as the mean±SEM, and a significant difference between the groups was verified using ANOVA.
# MaFbx/atrogin-1 = assay: RT-PCR of MaFbx/atrogin-1 gene expression in dexamethasone-treated myotubes; assay type: cell-based, mouse; settings: 100 μM suberic acid + 50 μM dexamethasone, 2 days, vs dexamethasone alone; FIG. 2B
# Method: as §1, §2, §3, §4
# p-p70S6K1 = assay: Western blotting of p-p70S6K1 in dexamethasone-treated myotubes; assay type: cell-based, mouse; settings: 100 μM suberic acid + 50 μM dexamethasone, 2 days, vs dexamethasone alone; FIG. 2A
# Method: as §1, §2, §3, §6
# [3] = tested on: mouse myoblast cell line (C2C12 cells); assay: Giemsa-Wright staining; thickness, length and fusion index of myotubes reduced by dexamethasone; assay type: cell-based; settings: 100 μM suberic acid + 50 μM dexamethasone, 2 days, vs dexamethasone alone
# Method: as §1, §2, §3
# The myotubes prepared in Example 1 were washed twice with phosphate-buffered saline (PBS), and then immobilized with 100% methanol for 10 minutes. When the immobilization was completed, the myotubes were air-dried at room temperature for 10 minutes, and then stained for 30 minutes by dropwise addition of a Giemsa-Wright staining solution (ASAN Pharmaceutical Co., Ltd., Seoul) which is used to specifically stain myotubes.
# The myotubes thus stained were photographed at 100× and 40× magnifications using a fluorescence microscope (IX 71, Olympus), and then analyzed using Image J software (USA). Six regions in each well were randomly selected and photographed using a microscope. The thicknesses, lengths and fusion indexes of at least 100 myoblast cells in each well were analyzed (in triplicate/group).
compound,measurement,setting,value
O=C(O)CCCCCCC(=O)O [suberic acid],expression of MuRF1,MuRF1,significantly decreased
same,increase in grip strength of the mice,C57BL/6N mice [1],approximately 21%
same,amount of p-4E-BP1 protein,p-4E-BP1,significantly increased again
same,increase in fiber diameter of the rectus femoris,C57BL/6N mice [2]; FIG. 4 (A),10%
same,increase in fiber diameter of the soleus,C57BL/6N mice [2]; FIG. 4 (B),15%
same,expression of MaFbx/atrogin-1,MaFbx/atrogin-1,significantly decreased
same,amount of p-p70S6K protein,p-p70S6K1,significantly increased again
same,increase in thickness (diameter) of the myotubes,[3]; FIG. 1B,58%
same,increase in fusion index of the myotubes,[3]; FIG. 1C,53%
same,increase in length of the myotubes,[3]; FIG. 1D,100%
